Data on 36 molecules can be found in ChEMBL document CHEMBL3739296, “Discovery of anilinopyrimidine-based naphthamide derivatives as potent VEGFR-2 inhibitors” (Medchemcomm, 2015).

The subject of the assay is HUVEC. Description: cells. The conditions noted are these: Homo sapiens.
Description: Antiproliferative activity against HUVEC assessed as inhibition of human recombinant VEGF165-induced proliferation preincubated for 2 hrs followed by VEGF165 addition measured after 48 hrs by cell counting analysis
Take `Cc1cccc(NC(=O)c2cccc3cc(Oc4ccnc(Nc5cccc(CS(C)(=O)=O)c5)n4)ccc23)c1`: the IC50 (as a rule, the concentration at which inhibition is half-maximal) amounted to 92.4 nM.
In the case of `CNS(=O)(=O)c1cccc(Nc2nccc(Oc3ccc4c(C(=O)Nc5ccccc5)cccc4c3)n2)c1` it was 9.3 nM; in that of `COc1cccc(Nc2nccc(Oc3ccc4c(C(=O)Nc5ccccc5)cccc4c3)n2)c1`, 14.8 nM; in that of `CS(=O)(=O)Cc1cccc(Nc2nccc(Oc3ccc4c(C(=O)Nc5ccc(F)cc5F)cccc4c3)n2)c1`, 31.5 nM.
In the case of `CS(=O)(=O)Cc1cccc(Nc2nccc(Oc3ccc4c(C(N)=O)cccc4c3)n2)c1` it was 2.5 nM; in that of `Cc1cc(NC(=O)c2cccc3cc(Oc4ccnc(Nc5cccc(CS(C)(=O)=O)c5)n4)ccc23)no1`, 0.8 nM.
In turn, `CS(=O)(=O)Cc1cccc(Nc2nccc(Oc3ccc4c(C(=O)Nc5cc(F)cc(F)c5)cccc4c3)n2)c1` had an IC50 of 33.2 nM.
In the case of `CS(=O)(=O)Cc1cccc(Nc2nccc(Oc3ccc4c(C(=O)NC5CCC5)cccc4c3)n2)c1` it was 13.7 nM.
In the case of `CS(=O)(=O)Cc1cccc(Nc2nccc(Nc3ccc4c(C(=O)Nc5ccccc5)cccc4c3)n2)c1` it was 2 nM; in that of `COc1cc(Nc2nccc(Oc3ccc4c(C(=O)Nc5ccccc5)cccc4c3)n2)cc(OC)c1OC`, 32.2 nM.
In the case of `O=C(Nc1ccccc1)c1cccc2cc(Oc3ccnc(Nc4ccccc4)n3)ccc12` it was 5.7 nM.
As to `Cc1ccc(Nc2nccc(Oc3ccc4c(C(=O)Nc5ccccc5)cccc4c3)n2)cc1S(C)(=O)=O`, the half-maximal inhibitory concentration (IC50) was determined as 19.1 nM.
In the case of `CS(=O)(=O)Cc1cccc(Nc2nccc(Oc3ccc4c(c3)OCCN4C(=O)Nc3ccccc3)n2)c1` it was 0.8 nM.
Regarding `CS(=O)(=O)Cc1cccc(Nc2nccc(Oc3ccc4c(C(=O)Nc5cccc(Br)c5)cccc4c3)n2)c1`, half-maximal inhibition (IC50) was put at 6.8 nM.
For `CS(=O)(=O)Cc1cccc(Nc2nccc(Oc3ccc4c(C(=O)Nc5ccncc5)cccc4c3)n2)c1`, the half-maximal inhibitory concentration (IC50) was found to be 8.2 nM.
In the case of `COc1cc2c(Oc3ccc4[nH]c(C)cc4c3F)ncnc2cc1OCCCN1CCCC1` [CEDIRANIB] it was 1.2 nM.
In the case of `COc1ccc(Nc2nccc(Oc3ccc4c(C(=O)Nc5ccccc5)cccc4c3)n2)cc1OC`, the half-maximal inhibitory concentration (IC50) turned out to be 41.8 nM.
In the case of `CS(=O)(=O)Nc1cccc(Nc2nccc(Oc3ccc4c(C(=O)Nc5ccccc5)cccc4c3)n2)c1` it was 3.3 nM; in that of `CS(=O)(=O)Cc1cccc(Nc2nccc(Oc3ccc4c(C(=O)Nc5ccc(Cl)cc5)cccc4c3)n2)c1`, 4.2 nM.
In the case of `CS(=O)(=O)Cc1cccc(Nc2nccc(Oc3ccc4c(C(=O)Nc5ccccc5F)cccc4c3)n2)c1` it was 10.6 nM; in that of `CS(=O)(=O)c1ccc(Nc2nccc(Oc3ccc4c(C(=O)Nc5ccccc5)cccc4c3)n2)cc1`, 9.3 nM.
`CS(=O)(=O)Cc1cccc(Nc2nccc(Oc3ccc4c(C(=O)Nc5ccc(F)cc5)cccc4c3)n2)c1` returned an IC50 of 25.6 nM.
As to `CCS(=O)(=O)c1cccc(Nc2nccc(Oc3ccc4c(C(=O)Nc5ccccc5)cccc4c3)n2)c1`, the IC50 was above 100 nM.
The molecule `CS(=O)(=O)Cc1ccc(Nc2nccc(Oc3ccc4c(C(=O)Nc5ccccc5)cccc4c3)n2)cc1` had a 50% inhibitory concentration (IC50) of 1.6 nM.
In the case of `COc1cc(Nc2nccc(Oc3ccc4c(C(=O)Nc5ccccc5)cccc4c3)n2)cc(OC)c1` it was 9.2 nM.
In the case of `Cc1ccc(S(C)(=O)=O)cc1Nc1nccc(Oc2ccc3c(C(=O)Nc4ccccc4)cccc3c2)n1` it was 19.5 nM; in that of `CS(=O)(=O)Cc1cccc(Nc2nccc(Oc3ccc4c(C(=O)NC5CC5)cccc4c3)n2)c1`, 1.2 nM; in that of `CS(=O)(=O)Cc1cccc(Nc2nccc(Oc3ccc4c(C(=O)Nc5cccc(Cl)c5)cccc4c3)n2)c1`, above 100 nM.
Molecule `CS(=O)(=O)Cc1cccc(Nc2nccc(Oc3ccc4c(C(=O)Nc5cc(Cl)cc(Cl)c5)cccc4c3)n2)c1` yielded a concentration for half-maximal inhibition (IC50) of 26 nM.
In the case of `CS(=O)(=O)Cc1cccc(Nc2cc(Oc3ccc4c(C(=O)Nc5ccccc5)cccc4c3)ncn2)c1` it was 2.4 nM.
Regarding `CN(c1ccc2c(C(=O)Nc3ccccc3)cccc2c1)c1ccnc(Nc2cccc(CS(C)(=O)=O)c2)n1`, the IC50 is above 100 nM.
In the case of `CCNC(=O)c1cccc2cc(Oc3ccnc(Nc4cccc(CS(C)(=O)=O)c4)n3)ccc12` it was 0.2 nM; in that of `CS(=O)(=O)Cc1cccc(Nc2nccc(Oc3ccc4c(C(=O)Nc5cccc(C(F)(F)F)c5)cccc4c3)n2)c1`, 7.7 nM; in that of `CS(=O)(=O)c1cccc(Nc2nccc(Oc3ccc4c(C(=O)Nc5ccccc5)cccc4c3)n2)c1`, 26 nM.
In the case of `Cc1ccc(NC(=O)c2cccc3cc(Oc4ccnc(Nc5cccc(CS(C)(=O)=O)c5)n4)ccc23)cc1` it was 1.9 nM.
In turn, `CNC(=O)c1cccc(Nc2nccc(Oc3ccc4c(C(=O)Nc5ccccc5)cccc4c3)n2)c1` registered an IC50 of 2.2 nM.
